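Grown in 96-well plates, cells were treated for 48 hours with each compound at five concentrations. Insufficient inhibition: endpoint recorded as highest concentration tested. Definition used: TGI = concentration required for complete inhibition of growth.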
Experiments:
Test in all cases: NCI anticancer screen, dose series, 48 h
[1] = tested on: UO-31 renal
[2] = tested on: SK-OV-3 ovarian
[3] = tested on: HCC-2998 colon
[4] = tested on: SK-MEL-28 melanoma
[5] = tested on: LOX IMVI melanoma
[6] = tested on: HS 578T breast
[7] = tested on: OVCAR-5 ovarian
[8] = tested on: HCT-116 colon
[9] = tested on: ACHN renal
[10] = tested on: SK-MEL-5 melanoma
[11] = tested on: COLO 205 colon
[12] = tested on: NCI-H460 lung
[13] = tested on: SNB-75 CNS
[14] = tested on: KM12 colon
[15] = tested on: UACC-62 melanoma
[16] = tested on: CAKI-1 renal
[17] = tested on: DU-145 prostate
[18] = tested on: U251 CNS
[19] = tested on: MDA-MB-435
[20] = tested on: OVCAR-4 ovarian
[21] = tested on: HOP-62 NSCLC
[22] = tested on: BT-549 breast
[23] = tested on: SF-539 CNS
[24] = tested on: NCI-H522 lung
[25] = tested on: A549 NSCLC
[26] = tested on: IGROV1 ovarian
[27] = tested on: UACC-257 melanoma
[28] = tested on: PC-3 prostate
[29] = tested on: SN12C renal
[30] = tested on: RPMI-8226 leukemia
[31] = tested on: TK-10 renal
[32] = tested on: CCRF-CEM leukemia
[33] = tested on: NCI/ADR-RES ovarian
[34] = tested on: OVCAR-8 ovarian
[35] = tested on: 786-0 renal
[36] = tested on: MOLT-4 leukemia
[37] = tested on: T-47D breast
[38] = tested on: NCI-H23 lung
[39] = tested on: HL-60(TB) leukemia
[40] = tested on: SF-295 CNS
[41] = tested on: SF-268 CNS
[42] = tested on: NCI-H226 lung
[43] = tested on: A498 renal
[44] = tested on: MCF7 breast
[45] = tested on: RXF 393 renal
[46] = tested on: HT29 colon
[47] = tested on: MALME-3M melanoma
[48] = tested on: OVCAR-3 ovarian
[49] = tested on: SR leukemia
[50] = tested on: SNB-19 CNS
[51] = tested on: HOP-92 NSCLC
[52] = tested on: HCT-15 colon
[53] = tested on: MDA-N
[54] = tested on: SW-620 colon
[55] = tested on: K-562 leukemia
[56] = tested on: SK-MEL-2 melanoma
[57] = tested on: MDA-MB-231 breast
[58] = tested on: EKVX NSCLC
[59] = tested on: M14 melanoma

**Q.** Cc1cccc2c(N)c3cccc(C(=O)NCCCNCCN)c3nc12 was tested. Which TGI [1] did it give?
**A.** 46.8 µM

**Q.** What about the TGI [2] of the same compound?
**A.** > 62.8 µM

**Q.** What about the TGI [3] of the same compound?
**A.** 19.6 µM

**Q.** What about the TGI [4] of the same compound?
**A.** 29.4 µM

**Q.** And the TGI [5]?
**A.** 25.2 µM

**Q.** What about the TGI [6] of the same compound?
**A.** 3.71 µM

**Q.** And the TGI [7]?
**A.** 38.4 µM

**Q.** What about the TGI [8] of the same compound?
**A.** 25.9 µM

**Q.** And the TGI [9]?
**A.** 32.8 µM

**Q.** And the TGI [10]?
**A.** 22.8 µM

**Q.** And the TGI [11]?
**A.** 20.1 µM

**Q.** What about the TGI [12] of the same compound?
**A.** 11.6 µM

**Q.** And the TGI [13]?
**A.** 8.1 µM

**Q.** And the TGI [14]?
**A.** 19.5 µM

**Q.** What about the TGI [15] of the same compound?
**A.** 19 µM

**Q.** What about the TGI [16] of the same compound?
**A.** 26.3 µM

**Q.** What about the TGI [17] of the same compound?
**A.** 17.2 µM

**Q.** What about the TGI [18] of the same compound?
**A.** 9.31 µM

**Q.** And the TGI [19]?
**A.** 29.1 µM

**Q.** What about the TGI [20] of the same compound?
**A.** 10.5 µM

**Q.** What about the TGI [21] of the same compound?
**A.** 18.3 µM

**Q.** What about the TGI [22] of the same compound?
**A.** 28 µM

**Q.** What about the TGI [23] of the same compound?
**A.** 9.93 µM

**Q.** And the TGI [24]?
**A.** 0.0786 µM

**Q.** And the TGI [25]?
**A.** 15 µM

**Q.** What about the TGI [26] of the same compound?
**A.** 28.9 µM

**Q.** What about the TGI [27] of the same compound?
**A.** 31.1 µM

**Q.** What about the TGI [28] of the same compound?
**A.** 35.3 µM

**Q.** What about the TGI [29] of the same compound?
**A.** 2.25 µM

**Q.** What about the TGI [30] of the same compound?
**A.** 37.3 µM

**Q.** What about the TGI [31] of the same compound?
**A.** 51.7 µM

**Q.** And the TGI [32]?
**A.** > 70.4 µM

**Q.** What about the TGI [33] of the same compound?
**A.** 77.9 µM

**Q.** What about the TGI [34] of the same compound?
**A.** 23.6 µM

**Q.** What about the TGI [35] of the same compound?
**A.** 11.4 µM

**Q.** What about the TGI [36] of the same compound?
**A.** 17.4 µM

**Q.** And the TGI [37]?
**A.** 24.8 µM

**Q.** What about the TGI [38] of the same compound?
**A.** 10.9 µM

**Q.** What about the TGI [39] of the same compound?
**A.** > 64.3 µM

**Q.** And the TGI [40]?
**A.** 20.9 µM

**Q.** What about the TGI [41] of the same compound?
**A.** 3.19 µM

**Q.** And the TGI [42]?
**A.** 9.15 µM

**Q.** What about the TGI [43] of the same compound?
**A.** 30.1 µM

**Q.** What about the TGI [44] of the same compound?
**A.** 11 µM

**Q.** And the TGI [45]?
**A.** 18.6 µM

**Q.** What about the TGI [46] of the same compound?
**A.** 16.3 µM

**Q.** And the TGI [47]?
**A.** 19.9 µM

**Q.** What about the TGI [48] of the same compound?
**A.** 63.2 µM

**Q.** What about the TGI [49] of the same compound?
**A.** > 82.9 µM

**Q.** And the TGI [50]?
**A.** 15 µM

**Q.** And the TGI [51]?
**A.** 42.7 µM

**Q.** What about the TGI [52] of the same compound?
**A.** > 100 µM

**Q.** What about the TGI [53] of the same compound?
**A.** 27 µM

**Q.** And the TGI [54]?
**A.** 33.3 µM

**Q.** What about the TGI [55] of the same compound?
**A.** > 100 µM

**Q.** And the TGI [56]?
**A.** 34 µM

**Q.** What about the TGI [57] of the same compound?
**A.** 12.9 µM

**Q.** What about the TGI [58] of the same compound?
**A.** 33.2 µM

**Q.** What about the TGI [59] of the same compound?
**A.** 28.4 µM

**Q.** With O=C(CNc1ccc(Cl)cc1)Nn1c(-c2ccccc2)nc2ccccc2c1=O as the compound, how does the TGI [1] read?
**A.** 20.4 µM

**Q.** What about the TGI [2] of the same compound?
**A.** 27.8 µM

**Q.** And the TGI [3]?
**A.** 23.5 µM

**Q.** What about the TGI [4] of the same compound?
**A.** 19.8 µM

**Q.** What about the TGI [5] of the same compound?
**A.** 4.12 µM

**Q.** What about the TGI [6] of the same compound?
**A.** 67 µM

**Q.** And the TGI [7]?
**A.** 28.2 µM

**Q.** What about the TGI [8] of the same compound?
**A.** 4.65 µM

**Q.** What about the TGI [9] of the same compound?
**A.** 22.3 µM

**Q.** And the TGI [10]?
**A.** 7.09 µM

**Q.** What about the TGI [11] of the same compound?
**A.** 18.6 µM

**Q.** What about the TGI [12] of the same compound?
**A.** 23.4 µM

**Q.** What about the TGI [13] of the same compound?
**A.** 24.1 µM

**Q.** What about the TGI [14] of the same compound?
**A.** 24.5 µM

**Q.** What about the TGI [15] of the same compound?
**A.** 10.9 µM

**Q.** What about the TGI [16] of the same compound?
**A.** 23.6 µM

**Q.** And the TGI [17]?
**A.** 28.5 µM

**Q.** And the TGI [18]?
**A.** 5.02 µM

**Q.** What about the TGI [19] of the same compound?
**A.** 23.2 µM

**Q.** And the TGI [20]?
**A.** 27 µM

**Q.** And the TGI [21]?
**A.** 19.9 µM

**Q.** What about the TGI [22] of the same compound?
**A.** 6.29 µM

**Q.** What about the TGI [23] of the same compound?
**A.** 14.9 µM

**Q.** What about the TGI [24] of the same compound?
**A.** 11.5 µM

**Q.** And the TGI [25]?
**A.** 29.4 µM

**Q.** What about the TGI [26] of the same compound?
**A.** 15.7 µM

**Q.** What about the TGI [27] of the same compound?
**A.** 33.2 µM

**Q.** What about the TGI [28] of the same compound?
**A.** 25.4 µM

**Q.** What about the TGI [29] of the same compound?
**A.** 20.9 µM

**Q.** And the TGI [30]?
**A.** 45.2 µM

**Q.** And the TGI [31]?
**A.** 30.5 µM

**Q.** What about the TGI [32] of the same compound?
**A.** 9.48 µM

**Q.** What about the TGI [33] of the same compound?
**A.** 19 µM

**Q.** What about the TGI [34] of the same compound?
**A.** 5.53 µM

**Q.** What about the TGI [35] of the same compound?
**A.** 10.2 µM

**Q.** What about the TGI [36] of the same compound?
**A.** 16.2 µM

**Q.** What about the TGI [37] of the same compound?
**A.** 32.6 µM

**Q.** What about the TGI [38] of the same compound?
**A.** 18 µM

**Q.** What about the TGI [39] of the same compound?
**A.** 32.1 µM

**Q.** And the TGI [40]?
**A.** 29.8 µM

**Q.** What about the TGI [41] of the same compound?
**A.** 26.9 µM

**Q.** And the TGI [42]?
**A.** 25.2 µM

**Q.** And the TGI [43]?
**A.** 29.7 µM

**Q.** And the TGI [44]?
**A.** 8.06 µM

**Q.** And the TGI [45]?
**A.** 17.4 µM

**Q.** What about the TGI [46] of the same compound?
**A.** 21.1 µM

**Q.** What about the TGI [47] of the same compound?
**A.** 13.7 µM

**Q.** What about the TGI [48] of the same compound?
**A.** 25.8 µM

**Q.** And the TGI [49]?
**A.** > 52.1 µM

**Q.** And the TGI [50]?
**A.** 24.5 µM

**Q.** What about the TGI [51] of the same compound?
**A.** 13.4 µM

**Q.** And the TGI [52]?
**A.** 18.9 µM

**Q.** What about the TGI [53] of the same compound?
**A.** 22.5 µM

**Q.** What about the TGI [54] of the same compound?
**A.** 11.9 µM

**Q.** And the TGI [55]?
**A.** 14.3 µM

**Q.** What about the TGI [56] of the same compound?
**A.** 30.4 µM

**Q.** And the TGI [57]?
**A.** 13.6 µM

**Q.** And the TGI [58]?
**A.** 35.7 µM

**Q.** And the TGI [59]?
**A.** 20.3 µM

From PubChem BioAssay (NCI)
